This test concerns the target T1, rhBACE-1 β-Secretase recombinant human (Homo sapiens, UniProt P56817).
T1 construct: purchased R&D Systems 931-AS
The experiment in a line: BACE assay (FRET, fluorogenic peptide substrate cleavage). The test is classed as biochemical. Particulars: for activity at 10 µM: read-out: % BACE Activity (10^-5 M). The text has this: The aim of this assay is to determine if a compound, either synthetic or of marine origin, is a BACE-1 inhibitor, to avoid the formation of Aβ. This assay is based on FRET technology (Fluorescence Resonance Energy Transfer). FRET is used to measure cleavage of a peptide substrate, among other uses. […] When a substrate peptide cleavage occurs, the energy balance is broken and all the donor fluorescence can be observed. The increase in fluorescence is linearly related to the rate of proteolysis (Gordon, GW et al., 1998). In this assay the reaction occurs between an enzyme, purified BACE-1, and a fluorogenic peptidic substrate who present the "Swedish mutation". The peptide cleavage by BACE-1 produces fluorescence energy and enzymatic activity can be quantified. The reagents which are used in this assay are the following: • rhBACE-1 β-Secretase recombinant human (R&D Systems. Ref. 931-AS). • Fluorogenic Peptide Substrate IV (R&D Systems. Ref. ES004). • B-SECRETASE INHIBITOR H-4848. (BACHEM. Ref. H-4848.0001). • FLUOSTAR OPTIMA plate reader with 320 nm excitation filter and 405 nm emission filter (Biogen cientifica). • Black microwell plate, 96 wells (Nunc. Ref. 00006877). Supplier: Dismadel. • Sodium acetate.
The assay is carried out in a 96 wells microplate. The final concentration of substrate is 3,5 µM per well, and the enzyme concentration is 0,5 µg/ml. The final volume of the assay is 100 µl per well and all reagents are diluted in Reaction Buffer. The compounds are tested at a concentration of 10^-5. The control in the assay is the commercial inhibitor β-Secretase inhibitor H-4848, which is tested at 300 nM. All the samples and controls are studied by duplicate.
The plate is mixed gently and changes in the fluorescence are measured using the plate reader, with "BACE" protocol. The temperature should be preferably maintained between 25 and 30 °C. Measurements are carried out every ten minutes during an hour. The first measure is subtracted from the last to calculate the fluorescence increase, evaluating the enzymatic activity. The 100% activity is calculated as the mean of the results of wells without sample or inhibitor.
Further information regarding this assay may be found in the following references, which are incorporated by reference into the present application: • Andrau, D et al; "BACE1- and BACE2-expressing human cells: characterization of beta-Amyloid precursor protein-derived catabolites, design of a novel fluorimetric assay, and identification of new in vitro inhibitors". J Biol Chem. 2003 Jul 11;278(28):25859-66. Gordon, GW et al; "Quantitative fluorescence resonance energy transfer measurements using fluorescence microscopy." Biophys J. 1998 May; 74:2702-13.

Setting [1] is: comparative examples (derivatives of arachidonic acid) at 10^-5 M, mean results, remaining enzyme activity, 100% = wells without sample or inhibitor.
Setting [2] is: fatty acids of formula (I) at 10^-5 M, mean results, remaining enzyme activity, 100% = wells without sample or inhibitor.

Read-outs that look alike come from different tables or passages of the source.

T1 sequence (P56817 46-457 limits assumed): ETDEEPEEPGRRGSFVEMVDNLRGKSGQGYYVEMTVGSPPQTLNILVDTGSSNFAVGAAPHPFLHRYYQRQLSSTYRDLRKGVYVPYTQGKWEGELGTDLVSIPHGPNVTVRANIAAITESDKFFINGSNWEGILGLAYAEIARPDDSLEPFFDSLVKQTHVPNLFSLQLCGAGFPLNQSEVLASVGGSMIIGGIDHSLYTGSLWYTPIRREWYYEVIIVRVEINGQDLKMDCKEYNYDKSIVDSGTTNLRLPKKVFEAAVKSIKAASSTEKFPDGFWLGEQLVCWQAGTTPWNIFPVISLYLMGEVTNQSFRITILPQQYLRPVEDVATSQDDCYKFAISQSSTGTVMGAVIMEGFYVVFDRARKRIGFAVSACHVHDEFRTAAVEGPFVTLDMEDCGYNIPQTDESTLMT

With `CCCCCC=CCC=CCC=CCC=CCCCC(=O)NCCO` [Anandamide, Icosa-5,8,11,14-tetraenoic acid (2-hydroxy-ethyl)-amide], the activity at 10 µM amounted to 100%.
On the same count and under the same terms, the figure for `CCCCC/C=C\C/C=C\C/C=C\C/C=C\CCCC(=O)O` [Arachidonic acid, cis,cis,cis,cis-5,8,11,14-Eicosatetraenoic acid] is 48.7%.
Turning to `CCCCCC=CCC=CCC=CCC=CCCCCOC(C)=O` [Arachidonyl Acetate, Acetic acid icosa-5,8,11,14-tetraenyl ester], under setting [1], the activity at 10 µM amounted to 100%.
Same read-out and setting: the figure for `CCCCCC=CCC=CCC=CCC=CCCCCO` [Arachidonyl alcohol, Icosa-5,8,11,14-tetraen-1-ol] is 100%.
`CC/C=C\C/C=C\C/C=C\C/C=C\C/C=C\C/C=C\CCC(=O)O` [Docosahexaenoic acid (DHA), cis-4,7,10,13,16,19-Docosahexaenoic Acid]: the activity at 10 µM under setting [2] amounted to 82%.
For the molecule `CCCCCC=CCC=CCC=CCC=CCCCC(=O)OCC` [Ethyl arachidonate, 5,8,11,14-Eicosatetraenoic acid ethyl ester], the activity at 10 µM under setting [1] is 100%.
In the case of `CCCCC/C=C\C/C=C\CCCCCCCC(=O)O` [Linoleic acid, cis-9,cis-12-Octadecadienoic acid], the activity at 10 µM under setting [2] was 55%.
As for `CC/C=C\C/C=C\C/C=C\CCCCCCCC(=O)O` [Linolenic acid, cis,cis,cis-9,12,15-Octadecatrienoic acid], the activity at 10 µM amounted to 55.5%.
Turning to “Cyclopropanecarboxylic acid icosa-5,8,11,14-tetraenylam ide [Arachidonylcyclopropylamide (ACPA)]”, the “% BACE Activity (10^-5 M)” value (comparative examples (derivatives of arachidonic acid) at 10^-5 M, mean results, remaining enzyme activity, 100% = wells without sample or inhibitor, 10 µM) was found to be 100%.
